Results published in US20080187937A1, “Method For Measuring Dynamics Of Self-Assembling Systems Of Biological Molecules In Vivo And Uses For Discovering Or Evaluating Therapeutic Agents” (priority 2004, published 2008).
“Also recorded” adds a separate entry of the source.

Tests used:
[1] = tested on: SW1573 human lung cancer cells implanted into nude mice; test: Microtubule dynamics compared to de novo DNA synthesis (cell proliferation) in SW1573 tumors; type: in vivo; conditions: varying doses of paclitaxel; 2H2O for 24 hours (FIG. 5A)
From the text: (§1) Microtubule dynamics were expressed as (^2H enrichment in polymer)/(^2H enrichment in dimer). Inhibition of de novo DNA synthesis was quantified as the reduction in ^2H label incorporation into tumor cell DNA. […]
(§2) Various factors can interfere with the actions of paclitaxel in tumors, including alterations in tubulin isotype content, efflux pumps, and in vivo drug metabolism. Regardless of these factors, inhibition of microtubule dynamics, if related to the antiproliferative activity of MTPAs in vivo, should correlate with inhibition of cell proliferation. […] Thus, the inhibition of microtubule dynamics appeared to have a measurable impact on and relation to the in vivo antiproliferative action of MTPAs.

[2] = tested on: SW1573 human lung cancer cells implanted into nude mice; test: 2H label incorporation into tubulin dimers and polymers in implanted SW1573 tumors in vivo
Description: (§3) The tumors were allowed to grow to approximately 1000 mm^3 […]; mice were then injected intraperitoneally with increasing doses of paclitaxel. ^2H2O (8%) in drinking water was administered for a 24 hr period, resulting in about 5% ^2H enrichment in body water (the balance being metabolic water). Animals were sacrificed 24 hours after drug treatment, and tumor tissue was removed for analysis of ^2H—label incorporation into tubulin dimers and polymers (FIG. 4).

[3] = tested on: MCF-7 human breast cancer cells implanted into nude mice; test: Microtubule dynamics compared to de novo DNA synthesis (cell proliferation) in MCF-7 tumors; type: in vivo; conditions: varying doses of paclitaxel; 2H2O for 24 hours (FIG. 5B)
From the text: as §1, §2

[4] = tested on: MCF-7 human breast cancer cells implanted into nude mice; test: 2H label incorporation into tubulin dimers and polymers in implanted MCF-7 tumors in vivo
Description: as §3
Qualitatively similar effects of paclitaxel were also seen in implanted MCF-7 tumors, though the amount of ^2H—label incorporation was lower than in SW1573 tumors (FIG. 4B).

[5] = tested on: SW1573 human lung cancer cells; test: 2H2O stable isotope incorporation into tubulin dimers and microtubule polymers in cultured cells; type: cell-based
Description: To determine whether biosynthetic labeling with ^2H2O can reveal MTPA effects on microtubule dynamics in actively proliferating cells, SW1573 human lung cancer cells were cultured and labeled during exponential growth with culture media containing 4% ^2H2O for 2, 6, 12, 24 and 36 hr, respectively. Tubulin dimer and polymer fractions were isolated from post-nuclear supernatants, and tubulin was purified from each fraction to ≧90% purity as determine by SDS-PAGE. After acid hydrolysis, amino acids were derivatized for GC/MS analysis with negative chemical ionization, and ^2H-label incorporation into the alanine derivative was quantified as the increase over natural abundance of the (M+1) mass isotopomer (“^2H—enrichment”; FIG. 3). […] The data support that in actively dividing cells, tubulin dimers and polymers are in a kinetic equilibrium on a time scale of hours. […] This indicates a substantial inhibition of ^2H—tubulin dimer flux into polymer, reflective of the ability of paclitaxel to stabilize microtubules and thus to prevent dynamic instability.

[6] = tested on: sciatic nerve microtubules; test: Sciatic nerve microtubule dynamics (2H label incorporation into free tubulin and polymerized microtubules); conditions: higher doses of paclitaxel; tumor-bearing mice (FIG. 6A)
Description: (§4) In order to evaluate neurotoxic effects of paclitaxel, the sciatic nerve was isolated from tumor-bearing mice and ^2H label incorporation into free tubulin was compared with ^2H label incorporation into polymerized microtubuies (FIG. 6). […] To explore this effect further, net changes in the abundance of unpolymerized free tubulin and microtubules was assessed by densitometric analysis (FIG. 6B).

microtubules = conditions: fold lower than maximum tolerated therapeutic dose
[7] = tested on: sciatic nerve microtubules; test: Densitometric analysis of free tubulin and microtubule abundance in sciatic nerve; conditions: tumor-bearing mice (FIG. 6B)
Description: as §4

[8] = at ≧5 mg/kg i.p., 2H2O for 24 hours (FIG. 4A)
[9] = increasing doses i.p., 24 hr 2H2O (8%) in drinking water
[10] = at ≧5 mg/kg i.p., 2H2O for 24 hours (FIG. 4B)

`CC(=O)O[C@H]1C(=O)[C@@]2(C)[C@H]([C@H](OC(=O)c3ccccc3)[C@]3(O)C[C@H](OC(=O)[C@H](O)[C@@H](NC(=O)c4ccccc4)c4ccccc4)C(C)=C1C3(C)C)[C@]1(OC(C)=O)CO[C@@H]1C[C@@H]2O` [paclitaxel] was tested, and the “relation between inhibition of microtubule dynamics and inhibition of de novo DNA synthesis (tumor cell proliferation)” value [1] was “strong relationship; also recorded: strong correlation between inhibition of microtubule dynamic instability and reduction in cell proliferation”, the “de novo synthesis of tubulin dimer” value [2, 8] was “increased de novo synthesis of tubulin dimer” and the “label incorporation into polymer” value [2, 8] was “inhibited label incorporation into polymer”. The “fractional synthesis of tubulin dimers” value [2, 9] was “fractional synthesis of tubulin dimers increased”, the “incorporation of 2H-tubulin into microtubules” value [2, 9] was “decreased incorporation of ^2H—tubulin into microtubules in a dose-dependent manner” and the “relation between inhibition of microtubule dynamics and inhibition of de novo DNA synthesis (tumor cell proliferation)” value [3] was “strong relationship; also recorded: strong correlation between inhibition of microtubule dynamics and reduction in cell proliferation”. The “paclitaxel-dependent reduction of 2H-label polymer” value ([4]; 5 and 10 mg/kg doses, compared with SW1573 tumors) was “less pronounced, albeit statistically significant”, the “de novo synthesis of tubulin dimer” value [4, 10] was “increased de novo synthesis of tubulin dimer” and the “label incorporation into polymer” value [4, 10] was “inhibited label incorporation into polymer”. For the same compound, the “upregulation of tubulin fractional synthesis over baseline” value ([4]; increasing doses i.p., 24 hr 2H2O) was “no significant paclitaxel-induced upregulation of tubulin fractional synthesis over baseline”, the “2H-enrichment in labeled polymers” value ([5]; 0.4 µM paclitaxel, 4% 2H2O, 36 hours (FIG. 3B)) was “reduced ^2H-enrichment in labeled polymers” and the “reduction of rate of 2H incorporation into polymers compared to rate of label incorporation into the dimer” value ([5]; media containing 4% 2H2O, up to 36 hr) was 75%. The “2H label incorporation into polymers (sciatic nerve)” value [6] was “increased the label incorporation into polymers”, the “2H labeling of free tubulin (sciatic nerve)” value [6] was “slightly decreasing labeling of free tubulin” and the “doses with significant effects on microtubule dynamics, relative to the maximum tolerated therapeutic dose” value (microtubules) was “up to 30 fold”. The “amount of free tubulin dimers (sciatic nerve, densitometry)” value [7] was “slight decrease in free tubulin dimers”.
